Experimental data taken from patent publication US10390532B2, “Insecticide composition including thiamethoxam and a synergistic agent” (priority 2015, dated 2019).
Where two headings read alike, the source gives them in different places.

What was measured:
Assay type in all cases: cell-based, Periplaneta americana
[1] = system: cockroach Dorsal Unpaired Median (DUM) neurons; conditions: for origin of the intracellular calcium rise: with caffeine, omega-conotoxin, pirenzepine
[2] = system: cockroach Dorsal Unpaired Median (DUM) neurons; experiment: Whole-cell patch-clamp, current-clamp: DUM neuron spontaneous electrical activity; conditions: 10^-8 M
Protocol: (§1) Experiments were carried out on cockroach Dorsal Unpaired Median (DUM) neurons. Cockroach neuronal preparations are commonly used as biomedical models for vertebrates and invertebrates and DUM neurons are, furthermore, electrophysiologically and pharmacologically well characterized since most of the biophysical and pharmacological properties of ionic currents and receptors underlying and modulating their spontaneous action potentials have been established by using the well-known patch-clamp technique.
(§2) Adult male cockroaches, Periplaneta americana (see FIG. 1), are taken from our laboratory colonies, which are maintained under standard conditions (29° C., photoperiod of 12 h light/12 h dark). Animals are immobilized dorsal-side up on a dissection dish. The dorsal cuticle, gut and some dorso-longitudinal muscles are removed to allow access to the ventral nerve cord. The abdominal nerve cord and its terminal abdominal ganglion (TAG), carefully dissected under a binocular microscope, are placed in normal saline. Animal care and handling procedures are in accordance with French institutional and national health guidelines. […]
(§3) Electrical activity and neonicotinoïd-induced inward currents are recorded using the patch clamp technique in the whole-cell recording configuration under current-clamp and voltage-clamp mode, respectively. […] Signals are recorded with an Axopatch 200A amplifier. […]

[3] = system: cockroach Dorsal Unpaired Median (DUM) neurons; experiment: Voltage-clamp thiamethoxam-induced current in DUM neurons after pretreatment with acetylcholine
Protocol: Electrical activity and neonicotinoïd-induced inward currents are recorded using the patch clamp technique in the whole-cell recording configuration under current-clamp and voltage-clamp mode, respectively. Patch-clamp electrodes are pulled from borosilicate glass capillary tubes (GC150T-10) using a P-97 model puller. Patch pipettes have resistances ranging from 1 to 1.2 MΩ when filled with internal pipette solution. The liquid junction potential between extracellular and intracellular solutions is always corrected before the formation of a giga Ohm seal (>3GΩ). Signals are recorded with an Axopatch 200A amplifier. […] Under voltage-clamp conditions, DUM neuron somata are voltage-clamped at a steady state holding potential of −50 mV to measure the effects of thiamethoxam applied alone and after pretreatment with IR3535® (10^−8 M). Experiments are carried out at room temperature.
Acetylcholine at a concentration of 10^−3M has been applied to DUM neurons during one second, three minutes before testing thiamethoxam at 10^−7M, 10^−6M and 10^−5M on DUM neurons under the same protocol as example 3.

[4] = system: cockroach Dorsal Unpaired Median (DUM) neurons; experiment: Whole-cell patch-clamp, voltage-clamp: thiamethoxam-induced inward current in DUM neurons; conditions: holding potential -50 mV
Protocol: as §1, §2, §3

CCN(CC)C(=O)c1cccc(C)c1 [DEET, N,N-diethyl-3-methylbenzamide]
effect on intracellular calcium concentration ([1]; DEET at concentrations higher than 10^-7 M): an important decrease of the intracellular calcium concentration | ratio of emitted fluorescence (340 nm/380 nm) ([1]; DEET between 3.10-8 M and 3.10-7 M): above 0.6 | concentration at which the intracellular calcium elevation reaches a maximum ([1]; DEET, DUM neurons): 10^−7 M | maximum value of ratio of emitted fluorescence (340 nm/380 nm) ([1]; DEET, maximum at 10^-7 M): 0.7

CCCCN(CCC(=O)OCC)C(C)=O [IR3535®, 3-[N-Butyl-N-acetyl]-aminopropionic acid, ethyl ester]
lower concentration which produces a significant elevation of intracellular calcium concentration ([1]; DUM neurons): 10^−8 M | concentration at which the zone I intracellular calcium increase reaches a maximum ([1]; DUM neurons, zone I): 10^−8 M | concentration producing the maximum effect on intracellular calcium (zone III) ([1]; DUM neurons, zone III): 3.10^−5 M | origin of the intracellular calcium rise ([1]; IR3535 at 10^-8 M): results from extracellular calcium through plasma membrane voltage-dependent calcium channels via M1/M3 mAChR sub-type modulation | origin of the intracellular calcium rise ([1]; higher concentrations of IR3535 (10^-5 M)): both extracellular calcium and calcium released from internal stores are involved | effect on membrane potential and spontaneous action potential discharge frequency [2]: induces a significant membrane depolarization associated with an increase of the spontaneous action potential discharge frequency

CN1COCN(Cc2cnc(Cl)s2)/C1=N\[N+](=O)[O-] [thiamethoxam]
current amplitude, rank among tested concentrations ([3]; thiamethoxam 10^-6 M after acetylcholine 10^-3 M): lowest value | induced current ([3]; thiamethoxam 10^-7, 10^-6, 10^-5 M after acetylcholine 10^-3 M (1 s, 3 min before)): induces a current | current amplitude, rank among tested concentrations ([3]; thiamethoxam 10^-7 M after acetylcholine 10^-3 M): highest value | induced current ([3]; thiamethoxam alone, no acetylcholine pretreatment): no current has been recorded | mean inward current amplitude relative to thiamethoxam applied alone ([4]; thiamethoxam 10^-6 M after pretreatment with IR3535 10^-8 M): about 6 fold | induced inward current amplitude ([4]; thiamethoxam 10^-6 M alone, n=3-4): induces an inward current with small amplitudes
